Laboratory results taken from patent publication US20230024096A1, “BIFUNCTIONAL COMPOUNDS FOR THE TREATMENT OF CANCER” (Hoffmann-La Roche Inc., priority 2019, published 2023).

Molecular target: T1, SMARCA2 (Homo sapiens, UniProt P51531)
T1 construct: endogenous in cells; host or cells: HT1080 (CRISPR HiBiT knock-in clone, generated in house)
Experiment: SMARCA2 HiBiT degradation assay (cellular)
Type: cell-based
Conditions: table head names A549; for DC50: 6 h incubation, HiBiT-tagged SMARCA2, luminescence read-out, read-out: HiBit A549 SMARCA2 IP (nM) 6 h; for Emax: A549, 6 h incubation, Emax = amount of residual protein remaining in the cell following compound treatment

T1 sequence (P51531 whole entry): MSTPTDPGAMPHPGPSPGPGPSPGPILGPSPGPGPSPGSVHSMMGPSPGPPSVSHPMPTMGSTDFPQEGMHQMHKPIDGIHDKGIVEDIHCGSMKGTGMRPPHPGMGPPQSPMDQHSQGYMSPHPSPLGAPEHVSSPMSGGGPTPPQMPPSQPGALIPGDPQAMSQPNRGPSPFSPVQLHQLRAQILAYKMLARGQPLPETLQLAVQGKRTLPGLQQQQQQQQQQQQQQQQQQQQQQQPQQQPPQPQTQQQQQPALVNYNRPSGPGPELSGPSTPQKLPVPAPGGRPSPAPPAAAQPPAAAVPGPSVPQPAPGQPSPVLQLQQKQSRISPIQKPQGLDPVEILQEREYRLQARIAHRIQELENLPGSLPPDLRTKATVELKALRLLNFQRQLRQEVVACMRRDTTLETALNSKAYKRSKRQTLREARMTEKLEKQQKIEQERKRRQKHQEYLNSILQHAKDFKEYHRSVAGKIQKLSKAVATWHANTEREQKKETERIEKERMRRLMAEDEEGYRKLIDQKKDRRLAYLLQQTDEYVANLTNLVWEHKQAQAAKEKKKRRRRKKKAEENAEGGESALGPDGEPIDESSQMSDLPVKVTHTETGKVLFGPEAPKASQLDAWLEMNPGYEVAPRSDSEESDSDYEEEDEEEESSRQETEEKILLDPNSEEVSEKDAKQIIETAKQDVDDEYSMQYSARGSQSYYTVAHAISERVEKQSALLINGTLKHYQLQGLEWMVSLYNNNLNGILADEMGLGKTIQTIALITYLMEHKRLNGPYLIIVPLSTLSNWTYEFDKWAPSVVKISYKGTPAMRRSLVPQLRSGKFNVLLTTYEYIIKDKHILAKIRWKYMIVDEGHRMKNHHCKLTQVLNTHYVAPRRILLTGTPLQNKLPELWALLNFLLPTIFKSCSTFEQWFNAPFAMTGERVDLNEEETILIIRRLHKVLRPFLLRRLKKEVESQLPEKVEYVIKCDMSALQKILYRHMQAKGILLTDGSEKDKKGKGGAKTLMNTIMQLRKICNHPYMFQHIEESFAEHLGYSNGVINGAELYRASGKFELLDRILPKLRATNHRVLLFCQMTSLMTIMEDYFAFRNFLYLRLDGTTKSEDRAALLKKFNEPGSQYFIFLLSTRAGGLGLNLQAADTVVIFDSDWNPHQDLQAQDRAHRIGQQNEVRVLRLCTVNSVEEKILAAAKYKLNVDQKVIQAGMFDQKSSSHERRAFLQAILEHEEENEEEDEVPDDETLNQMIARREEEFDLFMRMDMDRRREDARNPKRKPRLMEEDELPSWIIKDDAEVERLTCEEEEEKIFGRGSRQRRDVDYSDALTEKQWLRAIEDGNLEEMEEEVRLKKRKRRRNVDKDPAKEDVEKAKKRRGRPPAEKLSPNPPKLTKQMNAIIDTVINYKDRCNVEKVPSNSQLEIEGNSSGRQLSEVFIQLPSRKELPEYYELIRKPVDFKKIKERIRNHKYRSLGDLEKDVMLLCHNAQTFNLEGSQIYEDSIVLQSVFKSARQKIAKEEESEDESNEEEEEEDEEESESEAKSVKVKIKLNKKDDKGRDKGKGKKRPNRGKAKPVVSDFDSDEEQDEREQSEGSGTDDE

SMILES	DC50	Emax
Nc1nnc(-c2ccccc2O)cc1N1CC2CCC(C1)N2c1cccc(OCCN2CCN(C(=O)N3CCC4(CC3)CCN(c3ccc5c(c3)C(=O)N(C3CCC(=O)NC3=O)C5=O)CC4)CC2)c1 (racemic) [Example 52, rac-5-[3-[4-[2-[3-[3-[3-amino-6-(2-hydroxyphenyl)pyridazin-4-yl]-3,8-diazabicyclo[3.2.1]octan-8-yl]phenoxy]ethyl]piperazine-1-carbonyl]-3,9-diazaspiro[5.5]undecan-9-yl]-2-(2,6-dioxo-3-piperidyl)isoindoline-1,3-dione]	37 nM	52%
Nc1nnc(-c2ccccc2O)cc1N1CCC(CNC(=O)C2CCN(c3ccc4c(c3)C(=O)N(C3CCC(=O)NC3=O)C4=O)CC2)(c2ccccc2)CC1 (centres unmarked) [Example 74, N-((1-(3-amino-6-(2-hydroxyphenyl)pyridazin-4-yl)-4-phenylpiperidin-4-yl)methyl)-1-(2-(2,6-dioxopiperidin-3-yl)-1,3-dioxoisoindolin-5-yl)piperidine-4-carboxamide]	70 nM	46%
Nc1nnc(-c2ccccc2O)cc1N1CC2CCC(C1)N2c1cccc(OCCN2CCN(C(=O)CCC(=O)N3CCC(Nc4cccc5c4C(=O)N(C4CCC(=O)NC4=O)C5=O)CC3)CC2)c1 (racemic) [Example 20, rac-4-[[1-[4-[4-[2-[3-[3-[3-amino-6-(2-hydroxyphenyl)pyridazin-4-yl]-3,8-diazabicyclo[3.2.1]octan-8-yl]phenoxy]ethyl]piperazin-1-yl]-4-oxo-butanoyl]-4-piperidyl]amino]-2-(2,6-dioxo-3-piperidyl)isoindoline-1,3-dione]	168 nM	49%
Nc1nnc(-c2ccccc2O)cc1N1CC2CCC(C1)N2c1cccc(CN2CCC(C(=O)N3CCC(Oc4ccc5c(c4)C(=O)N(C4CCC(=O)NC4=O)C5=O)CC3)CC2)c1 (racemic) [Example 96, rac-5-[[1-[1-[[3-[3-[3-amino-6-(2-hydroxyphenyl)pyridazin-4-yl]-3,8-diazabicyclo[3.2.1]octan-8-yl]phenyl]methyl]piperidine-4-carbonyl]-4-piperidyl]oxy]-2-(2,6-dioxo-3-piperidyl)isoindoline-1,3-dione]	7 nM	27%
Nc1nnc(-c2ccccc2O)cc1N1CC2CCC(C1)N2c1cccc(OCCN2CCN(C(=O)CCC3CCN(c4cccc5c4C(=O)N(C4CCC(=O)NC4=O)C5=O)CC3)CC2)c1 (racemic) [Example 16, rac-4-[4-[3-[4-[2-[3-[3-[3-amino-6-(2-hydroxyphenyl)pyridazin-4-yl]-3,8-diazabicyclo[3.2.1]octan-8-yl]phenoxy]ethyl]piperazin-1-yl]-3-oxo-propyl]-1-piperidyl]-2-(2,6-dioxo-3-piperidyl)isoindoline-1,3-dione]	46 nM	50%
Nc1nnc(-c2ccccc2O)cc1N1CC2CCC(C1)N2c1cccc(OCCN2CCN(CCC3CCN(c4ccc5c(c4)C(=O)N(C4CCC(=O)NC4=O)C5=O)CC3)CC2)c1 (racemic) [Example 34, rac-5-[4-[2-[4-[2-[3-[3-[3-amino-6-(2-hydroxyphenyl)pyridazin-4-yl]-3,8-diazabicyclo[3.2.1]octan-8-yl]phenoxy]ethyl]piperazin-1-yl]ethyl]-1-piperidyl]-2-(2,6-dioxo-3-piperidyl)isoindoline-1,3-dione]	26 nM	24%
CCC(Nc1cccc2c1C(=O)N(C1CCC(=O)NC1=O)C2=O)c1cn(CCCCCCCCCN2CCN(c3ccc(N4CCC[C@H](Oc5cc(-c6ccccc6O)nnc5N)C4)cc3)CC2)nn1 (mixture of isomers) [Example 203, 2-(2,6-dioxo-3-piperidyl)-4-[1-[1-[9-[4-[4-[rac-(3S)-3-[3-amino-6-(2-hydroxyphenyl)pyridazin-4-yl]oxy-1-piperidyl]phenyl]piperazin-1-yl]nonyl]triazol-4-yl]propylamino]isoindoline-1,3-dione]	216 nM	28%
Nc1nnc(-c2ccccc2O)cc1N1CC2CCC(C1)N2c1cccc(CN2CCN(CCCOC3CCN(c4ccc5c(c4)C(=O)N(C4CCC(=O)NC4=O)C5=O)CC3)CC2)c1 (racemic) [Example 56, rac-5-[4-[3-[4-[[3-[3-[3-Amino-6-(2-hydroxyphenyl)pyridazin-4-yl]-3,8-diazabicyclo[3.2.1]octan-8-yl]phenyl]methyl]piperazin-1-yl]propoxy]-1-piperidyl]-2-(2,6-dioxo-3-piperidyl)isoindoline-1,3-dione]	10 nM	36%
Nc1nnc(-c2ccccc2O)cc1N1CC(Oc2cccc(CN3CCN(C(=O)CCC4CCN(c5ccc6c(c5)C(=O)N(C5CCC(=O)NC5=O)C6=O)CC4)CC3)c2)C1 (racemic) [Example 154, rac-5-[4-[3-[4-[[3-[1-[3-amino-6-(2-hydroxyphenyl)pyridazin-4-yl]azetidin-3-yl]oxyphenyl]methyl]piperazin-1-yl]-3-oxo-propyl]-1-piperidyl]-2-(2,6-dioxo-3-piperidyl)isoindoline-1,3-dione]	12 nM	16%
Nc1nnc(-c2ccccc2O)cc1N1CCC(C(=O)N2CC3(CCN(C(=O)C4CCN(c5ccc6c(c5)C(=O)N(C5CCC(=O)NC5=O)C6=O)CC4)CC3)C2)(c2ccccc2)CC1 (centres unmarked) [Example 163, 5-(4-(2-(1-(3-amino-6-(2-hydroxyphenyl)pyridazin-4-yl)-4-phenylpiperidine-4-carbonyl)-2,7-diazaspiro[3.5]nonane-7-carbonyl)piperidin-1-yl)-2-(2,6-dioxopiperidin-3-yl)isoindoline-1,3-dione]	22 nM	33%
Nc1nnc(-c2ccccc2O)cc1N1CC2CCC(C1)N2c1cccc(CC2CCN(C(=O)C3CCN(c4ccc5c(c4)C(=O)N(C4CCC(=O)NC4=O)C5=O)CC3)CC2)c1 (racemic) [Example 70, rac-5-[4-[4-[[3-[3-[3-amino-6-(2-hydroxyphenyl)pyridazin-4-yl]-3,8-diazabicyclo[3.2.1]octan-8-yl]phenyl]methyl]piperidine-1-carbonyl]-1-piperidyl]-2-(2,6-dioxo-3-piperidyl)isoindoline-1,3-dione]	40 nM	42%
Nc1nnc(-c2ccccc2O)cc1N1CC(Oc2cccc(CN3CCN(C(=O)CN4CCC(c5ccc(NC6CCC(=O)NC6=O)cc5)CC4)CC3)c2)C1 (racemic) [Example 156, rac-3-[4-[1-[2-[4-[[3-[1-[3-amino-6-(2-hydroxyphenyl)pyridazin-4-yl]azetidin-3-yl]oxyphenyl]methyl]piperazin-1-yl]-2-oxo-ethyl]-4-piperidyl]anilino]piperidine-2,6-dione]	3 nM	17%
Nc1nnc(-c2ccccc2O)cc1OC1CCCN(c2ccc(N3CCN(C(=O)CCCCCCCCCn4cc(CNc5cccc6c5C(=O)N(C5CCC(=O)NC5=O)C6=O)nn4)CC3)cc2)C1 (centres unmarked) [Example 28, 4-[[1-[10-[4-[4-[3-[3-amino-6-(2-hydroxyphenyl)pyridazin-4-yl]oxy-1-piperidyl]phenyl]piperazin-1-yl]-10-oxo-decyl]triazol-4-yl]methylamino]-2-(2,6-dioxo-3-piperidyl)isoindoline-1,3-dione]	91 nM	48%
